According to US10914725B2, “Culture medium additive, culture medium composition, and method for culturing cells or tissue using same” (NISSAN CHEMICAL INDUSTRIES, LTD., priority 2015, dated 2021):

Experiments:
[1] = system: adenocarcinomic human alveolar basal epithelial cell line A549; experiment: High content analysis of anticancer agents by cell image analysis (Experimental Example 8); type: cell-based; conditions: for average cell number per sphere / average dead cell number in sphere / average sphere number per 20 mm^2 / projected area: 0.03 (w/v)% low-molecular agar medium, 7 days with agent;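 as to projected area: Projected area in square micrometres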
Protocol: Adenocarcinomic human alveolar basal epithelial cell line A549 (manufactured by DS PHARMA BIOMEDICAL CO., LTD.) was suspended in the above-mentioned medium composition containing low-molecular agar at 11,000 cells/mL. […] The plate was stood in a CO2 incubator (37° C., 5% CO2) overnight. The next day, paclitaxel (manufactured by Wako Pure Chemical Industries, Ltd.) and trametinib (manufactured by SANTA CRUZ) were further added by 10 μl per 1 well at a final concentration of 0.001 μM, 0.01 μM and 0.1 μM, respectively, mitomycin C (manufactured by Wako Pure Chemical Industries, Ltd.) at a final concentration of 0.005 μM, 0.05 μM and 0.5 μM, and MK2206 (manufactured by SANTA CRUZ) at a final concentration of 0.001 μM, 0.01 μM, 0.1 μM and 1 μM. Successively, the plate was further cultured in a standing state in a CO2 incubator (37° C., 5% CO2) for 7 days.
Successively, a solution of 20 μg/mL Propidium Iodide (manufactured by BIOMOL) in DMEM (phenol red, L-glutamine free) (manufactured by Wako Pure Chemical Industries, Ltd.) was prepared and added at 10 μL per 1 well, and the culture medium was suspended. The plate was centrifuged at 1,500 rpm for 1 min, and high content analysis was performed by cell image analysis using a cell imaging apparatus (“ArrayScan VTI HCS Reader”, manufactured by Thermo Fisher Scientific). At that time, observation was performed with 20 fields of view per well using a ×10 objective lens, cell outline and cell nucleus were detected from Hoechst33342 fluorescence image, and dead cells were detected from propidium iodide fluorescence image. In addition, 50% inhibitory concentration (nM) of each anticancer agent by high content analysis was calculated from the number of spheres constituted of not less than 5 cells. In this case, the value without addition of the anticancer agent was taken as 0% sphere formation inhibitory rate.

[2] = system: adenocarcinomic human alveolar basal epithelial cell line A549; experiment: CellTiter-Glo cell survival assay of anticancer agents (Experimental Example 8); type: cell-based; conditions: for IC50: Homo sapiens, A549, cell survival assay by luminescence, read-out: 50% inhibitory concentration
Protocol: Adenocarcinomic human alveolar basal epithelial cell line A549 (manufactured by DS PHARMA BIOMEDICAL CO., LTD.) was suspended in the above-mentioned medium composition containing low-molecular agar at 11,000 cells/mL. The above-mentioned cell suspension was dispensed to the wells of a 96 well flat bottom ultra-low attachment surface microplate (manufactured by Corning Incorporated, #3474) at 90 μL per 1 well. The plate was stood in a CO2 incubator (37° C., 5% CO2) overnight. […] Successively, the plate was further cultured in a standing state in a CO2 incubator (37° C., 5% CO2) for 7 days. As a negative control, a medium composition containing 10 (v/v) % FBS alone in DMEM (manufactured by Wako Pure Chemical Industries, Ltd.) was prepared. […] A549 cells were also suspended in each of the negative control and comparison control medium compositions, the negative control was dispensed to a 96 well flat bottom attachment surface microplate (manufactured by Corning Incorporated, #3585) and the comparison control was dispensed to a 96 well flat bottom ultra-low attachment surface microplate (manufactured by Corning Incorporated, #3474). […] CellTiter-Glo Luminescent Cell Viability Assay (manufactured by Promega) (100 μL) was added to the low-molecular agar-containing culture medium and each cell culture medium of the negative control and comparison control, the mixture was stood for 10 min at room temperature, and the amount of luminescence was measured by a microplate reader (“FlexStation 3”, manufactured by Molecular Devices) and according to the protocol recommended by Promega. The amount of luminescence of the medium alone was subtracted, whereby the number of viable cells was measured.

## CC(=O)O[C@H]1C(=O)[C@@]2(C)[C@H]([C@H](OC(=O)c3ccccc3)[C@]3(O)C[C@H](OC(=O)[C@H](O)[C@@H](NC(=O)c4ccccc4)c4ccccc4)C(C)=C1C3(C)C)[C@]1(OC(C)=O)CO[C@@H]1C[C@@H]2O [paclitaxel, Paclitaxel]
[1]; Homo sapiens, A549, high content analysis by cell image analysis, number of spheres of not less than 5 cells, low-molecular agar-containing medium, read-out: 50% inhibitory concentration
  IC50: 4.1 nM
[1]; agent 0.001 μM
  average cell number per sphere: 4.817
  average dead cell number in sphere: 0.064
  average sphere number per 20 mm^2: 297.7
  projected area: 1271 μm^2
[1]; agent 0.01 μM
  average cell number per sphere: 2.3
  average dead cell number in sphere: 0.336
  average sphere number per 20 mm^2: 187
  projected area: 797 μm^2
[1]; agent 0.1 μM
  average cell number per sphere: 1.662
  average dead cell number in sphere: 0.591
  average sphere number per 20 mm^2: 133
  projected area: 647 μm^2
[2]; comparison control (0.015 (w/v)% deacylated gellan gum medium)
  IC50: 4.5 nM
[2]; low-molecular agar-containing medium
  IC50: 4.9 nM
[2]; negative control (DMEM, 10% FBS, attachment surface plate)
  IC50: 4.1 nM
[2]; agent 0.001 μM, comparison control (0.015 (w/v)% deacylated gellan gum medium)
  relative cell number (no anticancer agent = 100): 99.9
[2]; agent 0.001 μM, low-molecular agar-containing medium
  relative cell number (no anticancer agent = 100): 102.4
[2]; agent 0.001 μM, negative control (DMEM, 10% FBS, attachment surface plate)
  relative cell number (no anticancer agent = 100): 100.1
[2]; agent 0.01 μM, comparison control (0.015 (w/v)% deacylated gellan gum medium)
  relative cell number (no anticancer agent = 100): 23.5
[2]; agent 0.01 μM, low-molecular agar-containing medium
  relative cell number (no anticancer agent = 100): 27
[2]; agent 0.01 μM, negative control (DMEM, 10% FBS, attachment surface plate)
  relative cell number (no anticancer agent = 100): 18.8
[2]; agent 0.1 μM, comparison control (0.015 (w/v)% deacylated gellan gum medium)
  relative cell number (no anticancer agent = 100): 10.8
[2]; agent 0.1 μM, low-molecular agar-containing medium
  relative cell number (no anticancer agent = 100): 12.1
[2]; agent 0.1 μM, negative control (DMEM, 10% FBS, attachment surface plate)
  relative cell number (no anticancer agent = 100): 5.5
